Source: patent US20240383853A1, “OXIMES AND THEIR USE IN TREATMENT OF GBA-RELATED DISEASES” (ZEVRA DENMARK A/S, priority 2021, published 2024)
Where a name gives a salt, the structure may show the parent alone. Each block holds one molecule with its values, some of them ahead of it.

Molecular target: T1, glucosylceramidase (GCase, GBA) in human fibroblast cell line GM10915 harboring the L444P GBA mutation (Homo sapiens, UniProt P04062, L483P)
T1 construct: Human fibroblast cell line GM10915 harboring the L444P GBA mutation; host or cells: GM10915 human fibroblasts
T1 sequence (P04062 40-536 L483P): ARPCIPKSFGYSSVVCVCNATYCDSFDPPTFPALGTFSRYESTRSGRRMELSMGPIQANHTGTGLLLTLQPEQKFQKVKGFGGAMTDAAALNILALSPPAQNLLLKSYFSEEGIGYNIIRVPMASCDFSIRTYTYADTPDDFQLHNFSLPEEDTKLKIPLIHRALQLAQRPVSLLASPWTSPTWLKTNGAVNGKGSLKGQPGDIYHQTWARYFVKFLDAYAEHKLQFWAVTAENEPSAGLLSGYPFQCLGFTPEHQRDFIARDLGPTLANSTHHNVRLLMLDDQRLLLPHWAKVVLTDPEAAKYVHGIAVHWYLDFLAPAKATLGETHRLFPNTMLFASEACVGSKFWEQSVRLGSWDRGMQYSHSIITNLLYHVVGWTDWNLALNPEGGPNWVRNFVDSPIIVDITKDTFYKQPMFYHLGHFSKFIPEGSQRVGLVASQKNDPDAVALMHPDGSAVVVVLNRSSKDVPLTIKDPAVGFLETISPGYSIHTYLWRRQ
Test: GCase activity assay (4-MUG substrate, normalised to crystal violet staining) in GM10915 fibroblasts
Type: cell-based
Conditions: five days exposure; for GBA EC1.5: concentration where Percent GCase activity = 150% (1.5-fold induction), 8-point dose range; for GBA Emax / Emax: maximum Percent GCase activity relative to untreated cells in the dose range tested
Description: Human fibroblast cell line GM10915 harboring the L444P GBA mutation was obtained from Coriell Biorepositories. All chemicals (Glacial acetic acid, Glycine, 4-Methylumbelliferyl b-D-glucopyranoside (4-MUG), Sodium acetate trihydrate, Sodium hydroxide, Crystal violet, SDS, Ammonium hydroxide) were obtained from Sigma-Aldrich (Denmark). Compounds tested for GCase activity were dissolved in H2O or DMSO.
The GM10915 cell line was cultured under standard cell culture conditions (37° C. and 5% CO2) in complete DMEM medium supplemented with nonessential amino acids (NEAA), 1% Pen-Strep and 12% FCS. Cells were seeded at a density of 10^4 cells/well in 100 μL complete medium in one black 96-well plate for glucosylceramidase (GCase) activity measurement and in one clear 96-well plate for crystal violet staining to correct for cell density. Crystal violet staining is performed to obtain quantitative information about the relative density of cells adhering to multi-wells plates.
The assay was adapted from Sawkar et al (2002) and briefly described in the following. The day after seeding of cells, the medium was replaced with fresh medium containing the compounds to be tested. Compounds were tested in duplicate and in an 8-point diluted dose range to obtain a dose response. Cells were exposed with compounds for five days. Fresh compound was added every 2-3 days. PBS was included to define the basal level of GCase activity.
Cells were washed three times with 200 μL PBS per well and 50 μL of 2.5 mM 4-MUG buffer (4-MUG dissolved in 0.2 M acetate buffer pH 4.0) was added and the cells were incubated at 37° C., 5% CO2 for 23 hours. The reaction was stopped by adding 150 μL 0.2 M glycine buffer (pH 10.8). Fluorescence was measured with a Varioskan® Flash reader (Thermo Scientific) at an excitation/emission setting of 365/445 nm.
Cells were treated with compounds in a parallel setup identical to the setup to test for GCase activity. At the end of compound treatment, cells were washed once with 200 μL PBS per well and 50 μL 0.1% w/v crystal violet (in H2O) was added. Following 10 min. of incubation, the crystal violet solution was removed, and the cells were washed three times with 200 μL PBS and 100 μL 1% SDS was added to solubilize the stain. The plate was agitated on an orbital shaker for 10-30 min. Absorbance (A) is measured at […] using a Varioskan® Flash reader (Thermo Scientific).
The fluorescence signal (F) derived from the GCase measurement is normalized to the absorbance signal (A) derived from the crystal violet staining. The percent GCase activity resulting from compound treatment is calculated relative to the basal activity obtained from untreated cells.
Maximal effect of compounds (Emax) is determined from the dose response effects as the maximum “Percent GCase activity” achieved in the dose range tested.

Molecule: N-(2-hydroxy-3-(piperidin-1-yl)propoxy)-4-((6-methoxy-2-methylpyridin-3-yl)methyl)piperidine-4-carbimidoyl chloride tri-2,2,2-trifluoroacetate [ID 524]
- GBA EC1.5: 1 µM
- GBA Emax: 149%

Molecule: CN(C)CC/C(Cl)=N\OCC(O)CN1CCCCC1 (centres unmarked) [ID 446, 3-(dimethylamino)-N-(2-hydroxy-3-(piperidin-1-yl)propoxy)propanimidoyl chloride]
- GBA EC1.5: 6 µM
- Emax: 176%

Molecule: OC(CON=C(Cl)c1ccc(Cl)nc1)CN1CCCCC1 (centres unmarked) [ID 466, 6-chloro-N-(2-hydroxy-3-(piperidin-1-yl)propoxy)nicotinimidoyl chloride]
- GBA EC1.5: 18 µM
- Emax: 221%

Molecule: OC(CON=C(Cl)CCN1CCCCC1)CN1CCCCC1 (centres unmarked) [ID 563, N-(2-hydroxy-3-(piperidin-1-yl)propoxy)-3-(piperidin-1-yl)propanimidoyl chloride]
- GBA EC1.5: 3 µM
- Emax: 211%

Molecule: Cc1cc(Cl)ncc1C(Cl)=NOCC(O)CN1CCCCC1 (centres unmarked) [ID 501, 6-chloro-N-(2-hydroxy-3-(piperidin-1-yl)propoxy)-4-methylnicotinimidoyl chloride]
- GBA EC1.5: 19 µM
- Emax: 128%

Other lines, results leading:

- GBA EC1.5 (listed as 550): 27 µM
- GBA Emax (listed as 550): 159%
Molecule: OC(CO/N=C(\Cl)C1(Cc2cccnc2)CCNCC1)CN1CCCCC1 (centres unmarked) [ID 550]

- GBA EC1.5 (listed as 419): 12 µM
- GBA Emax (listed as 419): 387%
Molecule: OC(CO/N=C(\Cl)C1(Cc2cccnc2)CCNCC1)CN1CCCCC1 (centres unmarked) [ID 419, N-(2-hydroxy-3-(piperidin-1-yl)propoxy)-4-(pyridin-3-ylmethyl)piperidine-4-carbimidoyl chloride tri-2,2,2-trifluoroacetate]

- GBA EC1.5: 35 µM
- Emax: 174%
Molecule: CN1CCN(CC(O)CON=C(Cl)C2(Cc3cccnc3)CCNCC2)CC1 (single isomer, unassigned) [ID 513, N-(2-hydroxy-3-(4-methylpiperazin-1-yl)propoxy)-4-(pyridin-3-ylmethyl)piperidine-4-carbimidoyl chloride tetra-2,2,2-trifluoroacetate]

- GBA EC1.5: 43 µM
- Emax: 344%
Molecule: CC1(C(Cl)=NOCC(O)CN2CC3CCC2C3)CCNCC1 (single isomer, unassigned) [ID 410, N-(3-(2-azabicyclo[2.2.1]heptan-2-yl)-2-hydroxypropoxy)-4-methylpiperidine-4-carbimidoyl chloride di-2,2,2-trifluoroacetate]

- GBA EC1.5: 37 µM
- Emax: 320%
Molecule: CC1(/C(Cl)=N/OCC(O)CN2CCCCC2)CCNCC1 (centres unmarked) [ID 336, N-(2-hydroxy-3-(piperidin-1-yl)propoxy)-4-methylpiperidine-4-carbimidoyl chloride dihydrochloride]
